The values that follow come from patent publication US10875891B2, “Short synthetic peptide and uses thereof” (MacKay Memorial Hospital, priority 2018, dated 2020).

Entries after “also recorded” stand apart in the source; their conditions may differ. Where no end group is shown, it is not given here.

For assay [1], the system named is RPMI8226 cells. Briefly: Annexin V/propidium iodide apoptosis by flow cytometry. The format is cell-based, human. Conditions: treatment for 24 hr; control untreated cells less than 15%; FIG. 6. The method, then:
Annexin V/propidium iodide (PI) staining was performed using flow cytometry according to the manufacturer's guidelines (Annexin V-FITC Apoptosis Detection kit; Roche). Briefly, 0.5×10^6 cells were washed in ice-cold PBS without Ca^2+ or Mg^2+ (Life Technologies). The cells were then re-suspended in 100 μl of binding buffer and incubated with 5.0 μl of PI and 2.0 μl of annexin V-fluorescein isothiocynate for 15 min in the dark at room temperature. Flow cytometric analysis was immediately performed using a FACScalibur Instrument (Becton Dickinson).
Background: A flow cytometer gives signals particle by particle.

For assay [2], the system named is Murine psoriasis vulgaris-like skin inflammation model. As to the kind of experiment: IMQ-induced psoriasis vulgaris-like skin inflammation model, skin appearance. The settings on record: 25 μM with IMQ cream, topical daily, six consecutive days; FIG. 7. The format is in vivo, BALB/c mice. The method, then: (§1) BALB/c mice (8-weeks old females; n=42) were used in this model system. […] Accordingly, in this model, each BALB/c mice received a daily topical dose (62.5 mg) of commercially available IMQ cream (Imiquimod Cream 5% w/w, Aldara™) on the shaved back and the right ear for 6 consecutive days (n=6); whereas the control mice (normal group) were treated with a control cream (n=6). For treatment, each test peptide was mixed with IMQ cream to give a concentration of 25 μM (n=6 per group). Keratinocyte proliferation was determined by BrdU incorporation. BrdU (Sigma-Aldrich) was reconstituted in DMSO as a stock solution of 80 mM. 10 μl of BrdU mixed with 90 μl of PBS was intraperitoneally injected into each mouse for 24 hr prior to euthanasia.

The subject of assay [3] is Murine dry eye model. As to the kind of experiment: Dry eye animal model, tear production by phenol red thread test. Conditions: treated for 4 days; P<0.01 versus vehicle treatment; FIG. 4. The format is in vivo, C57BL/6 mice. On the procedure:
(§2) C57BL/6 mice (7-8 weeks old, each weighted about 18 to 25 g) were used in this model system. All mice were maintained in the animal facility in accordance with the procedures approved by Mackay Memorial Hospital Review Board (Taiwan, R.O. C.). All animal experimental procedures were conducted according to the ARVO Statement for the Use of Animals in Ophthalmic and Vision Research.
(§3) Dry eyes were induced by placing mice in a controlled environment chamber (CEC) for 14 days in accordance with procedures previously described by Barabino et al (IVOS (2005) 46(8), 2766-2771). Mice placed in the CEC were exposed to a condition, in which relative humidity (RH) was maintained at <25%, temperature at 20-22° C., and airflow at about 15 L/min, for 12 hours per day. Control mice were kept in a normal environment (RH>50%, no air flow, temperature of 20-22° C.) for the same duration.
(§4) A common artificial tear formulation, 1% carboxymethylcelllulose (CMC) dissolved in balanced salt solution (BSS) was used as the peptide vehicle. Peptide (50 μM) or 1% CMC vehicle was topically administered to eyes three times a day, for 4 days.
Tear production was measured with phenol red-impregnated cotton threads (Zone-Quick; Oasis, Glendora, Calif.). The validity of this test in mice was performed as previously described (Dursun et al., Invest Ophthalmol Vis Sci. 2002; 43:632-8). The threads were held with jeweler forceps and placed in the lateral canthus for 60 seconds. The tear production expressed in millimeters of thread wet by the tear and turned red.

The test system of assay [4] is Murine psoriasis vulgaris-like skin inflammation model. Briefly: IMQ-induced psoriasis vulgaris-like skin inflammation model, H&E histology of back skin. It is filed as in vivo, BALB/c mice. Conditions: for acanthosis, quantified epidermal thickness: 25 μM with IMQ cream, 6 days, IMQ control 122±10.5, FIG. 8 panel B. The method, then:
as §1
Back skin of the mouse was fixed overnight in 4% paraformaldehyde, dehydrated with graded ethanol series, and paraffinized. Fixed samples were deparaffinized in xylene and rehydrated in a graded series of ethanol. Tissues were sliced into 5-μm sections. General histology was performed using hematoxylin and eosin (H&E) (Merck, Rayway, N.J., USA).
(§5) Slides were blocked with 10% goat serum for 60 min and then incubated with primary antibody against BrdU (1:50 dilution; GTX42641) for 3 hr at RT. The slides were then incubated with peroxidase-labeled donkey immunoglobulin for 30 min and then incubated with chromogen substrate (3,3′-diaminobenzidine) for 2 min before counterstaining with hematoxylin. Quantification was estimated based on high quality images (1208×960 pixels buffer) captured using a Nikon Eclipse 80i light microscope.

Assay [5] concerns Murine dry eye model. As to the kind of experiment: Dry eye animal model, fluorescein eye stain test for corneal injuries. It is filed as in vivo, C57BL/6 mice. Conditions: peptide 50 μM topically three times a day for 4 days; for reduction in mean corneal fluorescein staining score compared with vehicle treated control mice: FIG. 3 panel B. The method, then: as §2, §3, §4
Corneal epithelial injury was determined by staining with topical fluorescein (100 mg/ml or 10%; FLUORESCITE™, Alcon Laboratories). For dosing, topical fluorescein (0.6 μL of 0.5% sodium fluorescein dissolved in 4.4 μL BSS per eye) was applied via a micro-pipette to the lateral canthus for 15 sec. Corneal fluorescein staining was examined with a slit-lamp biomicroscope under cobalt blue light and photographed with a digital camera. Data is presented as mean±SD. Dye staining of the cornea was scored in a blinded manner as follows: score 0 for no punctuate staining; score 1 when less than one third of the cornea was stained; score 2 when two thirds or less was stained; and score 3 when more than two thirds was stained.

Assay [6] has as its system RPMI8226 cells. As to the kind of experiment: Trypan blue exclusion assay. The settings on record: vs solvent (DMSO) 7.5±1.3, FIG. 5. The format is cell-based, human. On the procedure: (§6) The multiple myeloma line RPMI8226 or rat Raw264.7 macrophages were cultivated in complex medium (RPMI1640) supplemented with 10% (vol/vol) heat-inactivated fetal calf serum (Invitrogen), 50 μg/mL penicillin, 50 μg/mL streptomycin, and 2 mM L-glutamine at 37° C. in a 5% CO2 atmosphere RPMI8226 cells or U266 cells were cultured in serum-free RPMI1640 medium for 24 h, and then cells seeded in 48-well culture plates (3×10^5 cells/well) and cultured in 0.5 ml fresh serum-free RPMI1640 medium containing 20 μM peptide for further 24 h. The cell viability was determined by the MTT assay. The cells were examined under a microscope with the aid of a hemacytometer, in which 0.1 mL of trypan blue stock solution (0.4% solution of trypan blue in isotonic salt buffer solution, pH 7.2) was added to 1 mL cell suspension, and loaded therein. The number of blue staining cells (considered non-viable) and the number of total cells were respectively counted. Cell viability should be at least 95% for healthy log-phase cultures.

Assay [7] deals with Murine psoriasis vulgaris-like skin inflammation model. Briefly: IMQ-induced psoriasis vulgaris-like skin inflammation model, keratinocyte proliferation by BrdU incorporation. It is filed as in vivo, BALB/c mice. The settings on record: for hyperproliferation of keratinocytes, BrdU-positive cells in the epidermis (labeling index): 25 μM with IMQ cream, day 6, IMQ control 24.5±2.0, FIG. 9 panel B. The method, then:
as §1, §5
A general note: Dividing cells build labelled thymidine or BrdU into new DNA.

The next assay concerns myeloma RPMI 8226 cell. As to the kind of experiment: MTT assay, cell viability. The format is cell-based, human. The settings on record: 20 μM peptide, 24 h, serum-free RPMI1640; FIGS. 1-2. On the procedure:
The multiple myeloma line RPMI8226 or […] Raw264.7 macrophages were cultivated in complex medium (RPMI1640) supplemented with 10% (vol/vol) heat-inactivated fetal calf serum (Invitrogen), 50 μg/mL penicillin, 50 μg/mL streptomycin, and 2 mM L-glutamine at 37° C. in a 5% CO2 atmosphere
RPMI8226 cells or U266 cells were cultured in serum-free RPMI1640 medium for 24 h, and then cells seeded in 48-well culture plates (3×10^5 cells/well) and cultured in 0.5 ml fresh serum-free RPMI1640 medium containing 20 μM peptide for further 24 h. The cell viability was determined by the MTT assay.
50 μL of the MTT stock solution (5 mg MTT dissolved in 1 ml of sterile PBS) was added to each well, and 50 μL of the MTT stock solution was added to 500 μL of medium alone and used as a negative control. Each sample was Incubates at 37° C. for 4 hours. Aliquots (450 μl) from each sample were taken to a new well of 48-well culture plate, adding 100 μL DMSO, mixing thoroughly using the pipette and reacted at 37° C. for 20 min and absorbance was measured at 570 nm.
(In general: Formazan colour is commonly taken as a measure of viable cells.)

A further assay relates to U266 cells. As to the kind of experiment: Trypan blue exclusion assay. The settings on record: vs solvent (DMSO) 8.7±1.1, FIG. 5. The format is cell-based, human. The method, then: as §6, with “RPMI8226” for “The multiple myeloma line RPMI8226 or rat Raw264.7 macrophages were cultivated in complex medium (RPMI1640) supplemented with 10% (vol/vol) heat-inactivated fetal calf serum (Invitrogen), 50 μg/mL penicillin, 50 μg/mL streptomycin, and 2 mM L-glutamine at 37° C. in a 5% CO2 atmosphere RPMI8226”

Take “NH2-Asp-Ile-Thr-Tyr-Val-Arg-Leu-Lys-Phe-COOH (DITYVRLKF; not fully specified (N-terminus, C-terminus); printed as NH2-Asp-Ile-Thr-Tyr-Val-Arg-Leu-Lys-Phe-COOH) [9-mer, short synthetic peptide …]”: the “myeloma cells exhibiting apoptotic phosphatidylserine exposure (annexin-V staining)” value in the assay with RPMI8226 cells [1] was “approximately 54%”. Moreover, the “skin inflammation and desquamation” value in [2] was “reduced level of dosal skin inflammation and desquamation”. The “tear volume (tear production)” value in the assay with Murine dry eye model [3] was “significantly increased”. Also, the “acanthosis, quantified epidermal thickness” value in assay [4] is reported as 39.2±2.7 μm. In [4] (vs IMQ-treated skin sections, FIG. 8 panel A), the “acanthosis and desquamation in skin sections (H&E staining), result in words” value was “decrease in acanthosis and less desquamation”. Besides, the “reduction in mean corneal fluorescein staining score compared with vehicle treated control mice” value with Murine dry eye model [5] was “about 3 fold”. Also, the “corneal fluorescein stain (corneal damage), result in words” value with Murine dry eye model [5] (vs vehicle) is “reduced significantly”. In addition, the “cell viability by trypan blue assay” value with RPMI8226 cells [6] was determined as 59.7±4.5; in the assay with U266 cells, 47.0±4.6. Besides, the “hyperproliferation of keratinocytes, BrdU-positive cells in the epidermis (labeling index)” value in assay [7] came to 8.3±1.4%. The “location of BrdU-positive cells in the epidermis” value in [7] (day 6 after IMQ treatment, FIG. 9 panel A) was “restrict to the basal layer of the epidermis”. Further, the “myeloma RPMI 8226 cell viability (MTT assay)” value with myeloma RPMI 8226 cell is reported as “successfully suppressed myeloma RPMI 8226 cell viability; also recorded: effective in suppressing myeloma cell viability”.
Turning to “NH2-Lys-Ala-Phe-Asp-Ile-Thr-Tyr-Val-Arg-Leu-Lys-Phe-COOH (KAFDITYVRLKF; not fully specified (N-terminus, C-terminus); printed as NH2-Lys-Ala-Phe-Asp-Ile-Thr-Tyr-Val-Arg-Leu-Lys-Phe-COOH) [12-mer, 9-mer with additional 3 amino acid residues at the N-terminal]”, the “tear volume (tear production)” value in the assay on Murine dry eye model [3] is given as “significantly increased”. Besides, the “acanthosis, quantified epidermal thickness” value in assay [4] stood at 35.3±4.1 μm. The “reduction in mean corneal fluorescein staining score compared with vehicle treated control mice” value in the assay with Murine dry eye model [5] is listed as “about 3 fold”. Also, the “hyperproliferation of keratinocytes, BrdU-positive cells in the epidermis (labeling index)” value in [7] is recorded as 8.5±1.4%. In addition, the “myeloma RPMI 8226 cell viability (MTT assay)” value in the assay with myeloma RPMI 8226 cell is listed as “successfully suppressed myeloma RPMI 8226 cell viability; also recorded: effective in suppressing myeloma cell viability; also recorded: more potent at lower dose”.
